The results in this text go back to publication PMC3562592 (Journal of the American Chemical Society, 2012).

The assay concerns the target T1, FAAH (Rattus norvegicus, UniProt P97612).
T1 sequence (P97612 1-579): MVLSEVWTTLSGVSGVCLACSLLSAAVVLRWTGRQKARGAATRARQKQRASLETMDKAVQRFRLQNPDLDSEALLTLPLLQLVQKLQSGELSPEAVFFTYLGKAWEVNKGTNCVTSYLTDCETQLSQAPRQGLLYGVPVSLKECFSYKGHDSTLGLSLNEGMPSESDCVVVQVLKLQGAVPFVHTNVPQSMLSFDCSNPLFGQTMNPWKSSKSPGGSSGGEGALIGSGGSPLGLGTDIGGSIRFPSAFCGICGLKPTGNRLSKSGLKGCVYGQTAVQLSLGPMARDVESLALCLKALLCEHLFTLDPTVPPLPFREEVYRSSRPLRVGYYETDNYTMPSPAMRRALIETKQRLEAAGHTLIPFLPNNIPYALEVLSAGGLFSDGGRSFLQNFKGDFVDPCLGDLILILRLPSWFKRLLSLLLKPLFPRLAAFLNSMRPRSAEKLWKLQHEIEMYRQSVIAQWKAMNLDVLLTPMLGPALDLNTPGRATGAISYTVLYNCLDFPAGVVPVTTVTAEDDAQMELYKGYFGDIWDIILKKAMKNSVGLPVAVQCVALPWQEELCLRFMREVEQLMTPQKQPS
In words: WaterLOGSY NMR binding to FAAH.

In the case of `CC(C(=O)O)c1ccc2c(c1)[nH]c1ccc(Cl)cc12` (racemic) [carprofen, (RS)-2-(6-chloro-9H-carbazol-2-yl)propanoic acid], the “binding to FAAH (WaterLOGSY signals)” value (enzyme pre-incubated with URB597) is “did not alter such binding” and the “binding to FAAH (WaterLOGSY signals)” value (without URB597) is recorded as “able to bind FAAH”.
